This note sets out measurements from US9458141B2, “Low molecular weight thyroid stimulating hormone receptor (TSHR) agonists” (The United States of America, as represented by the …, priority 2008, dated 2016).

Structures are written as SMILES. Like-named read-outs stand apart in the source and are kept apart here.

The assay concerns the target T1, human TSHR (Homo sapiens, UniProt P16473).
T1 construct: expressed in transfected cells
Kind of assay: Homogeneous Time Resolved Fluorescence (HTRF) cAMP assay, TSHR cell line. In kind it is cell-based. Conditions: for AC50: HTRF cAMP, TSHR cell line, 30 minute incubation; for Emax: read-out: Maximum Activity compared to TSH, 100% activity = response of 30 mU/ml TSH, 0% = DMSO control; for Maximum Activity compared to TSH: 100% activity = response of 30 mU/ml TSH, 0% = DMSO control, in %; call rule not given here. On the technique in general: TR-FRET usually uses a lanthanide donor and a delayed reading to cut background.

T1 sequence (P16473 21-764): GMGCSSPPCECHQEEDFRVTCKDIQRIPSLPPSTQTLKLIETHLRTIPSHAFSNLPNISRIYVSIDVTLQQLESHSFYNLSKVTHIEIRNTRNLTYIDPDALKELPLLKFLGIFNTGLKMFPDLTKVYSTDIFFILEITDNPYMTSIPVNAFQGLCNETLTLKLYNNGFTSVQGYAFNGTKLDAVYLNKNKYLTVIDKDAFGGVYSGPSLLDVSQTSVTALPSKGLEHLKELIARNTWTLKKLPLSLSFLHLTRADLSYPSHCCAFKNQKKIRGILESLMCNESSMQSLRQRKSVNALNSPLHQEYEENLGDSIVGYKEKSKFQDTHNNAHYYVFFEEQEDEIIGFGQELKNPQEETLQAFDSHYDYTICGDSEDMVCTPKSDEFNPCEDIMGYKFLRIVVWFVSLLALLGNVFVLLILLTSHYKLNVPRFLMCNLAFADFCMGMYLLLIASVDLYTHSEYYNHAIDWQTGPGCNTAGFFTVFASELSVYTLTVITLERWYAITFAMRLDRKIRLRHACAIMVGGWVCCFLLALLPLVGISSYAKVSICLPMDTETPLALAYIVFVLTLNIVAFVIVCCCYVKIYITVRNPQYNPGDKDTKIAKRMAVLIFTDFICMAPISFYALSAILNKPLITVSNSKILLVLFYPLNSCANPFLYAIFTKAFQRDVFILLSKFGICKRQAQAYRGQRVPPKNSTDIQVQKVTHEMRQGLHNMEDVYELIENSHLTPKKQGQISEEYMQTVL

The term AC50 denotes the concentration giving half of the maximal activity seen. As for `COc1ccc(C2Nc3ccccc3C(=O)N2Cc2ccccc2)cc1COc1ccccc1OC` (stereo not shown) [Structure 229], the Emax came to 23.5%. The AC50 (read-out: AC50) turned out to be 8.91 µM.
`COc1cc(C2Nc3ccccc3C(=O)N2Cc2ccccc2)ccc1OCc1ccc(NC(C)=O)cc1` (stereo not shown) [Structure 230]: the concentration at half-maximal activity (AC50) entry is “inactive”.
In the case of `COc1ccc(C2Nc3ccccc3C(=O)N2Cc2ccccc2Cl)cc1COc1ccc(NC(C)=O)cc1` (stereo not shown) [Structure 231], the Emax was 16%. Moreover, the AC50 (read-out: AC50) came to 3.55 µM.
For the compound `COc1ccc(C2Nc3ccccc3C(=O)N2Cc2ccccc2)cc1COc1ccc(C)cc1` (stereo not shown) [Structure 232], the AC50 result was “inactive”.
For the compound `COc1ccc(C2NC(=O)c3ccccc3N2)cc1COc1ccc(NC(C)=O)cc1` (stereo not shown) [Structure 233], the AC50 result was “inactive”.
With `COc1ccc(C2Nc3ccccc3C(=O)N2Cc2ccc(C(F)(F)F)cc2)cc1COc1ccc(NC(C)=O)cc1` (stereo not shown) [Structure 234], the “Maximum Activity compared to TSH” value turned out to be 18.00. Besides, where the note is “read-out: AC50”, the AC50 is 8.91 µM.
Regarding `COc1ccc(C2Nc3cccc(OC)c3C(=O)N2Cc2ccccc2)cc1COc1ccc(NC(C)=O)cc1` (stereo not shown) [Structure 235], the AC50 result was “inactive”.
Regarding `COc1ccc(CN(Cc2ccccc2)C(=O)COC(C)=O)cc1COc1ccc(NC(C)=O)cc1` [Structure 236], the “Maximum Activity compared to TSH” value is on record as 32.00. Besides, the AC50 (read-out: AC50) was 35.5 µM.
For the compound `COc1ccc(C2Nc3ccccc3C(=O)N2Cc2ccco2)cc1COc1ccc(N)cc1` (stereo not shown) [Structure 237], the AC50 entry is “inactive”.
For the compound `COc1ccc(C2Nc3ccccc3C(=O)N2Cc2ccccc2)cc1COc1ccc(Cl)cc1` (stereo not shown) [Structure 238], the AC50 entry was “inactive”.
Turning to `COc1cccc(-c2nc(SC)nc3sc(C(=O)NC(C)(C)C)c(N)c23)c1` [Structure 239], the “Maximum Activity compared to TSH” value is 30.00. Besides, the AC50 (read-out: AC50) was determined as 17.8 µM.
As to `COc1cccc(-c2nc(SC)nc3sc(C(=O)NC(C)(C)C)c(N)c23)c1` [Structure 240], the AC50 result is “inactive”.
Still for that read-out and setting: the same measure for `COc1ccc(C2Nc3ccccc3C(=O)N2Cc2ccc(-c3ccccc3)cc2)cc1COc1ccc(NC(C)=O)cc1` (stereo not shown) [Structure 242]: “inactive”.
Still for that read-out and setting: the same measure for `COc1ccc(C2Nc3ccccc3C(=O)N2Cc2ccccc2)cc1Oc1ccc(NC(C)=O)cc1` (stereo not shown) [Structure 243]: “inactive”; for `O=C1CC(c2ccco2)CC2=C1C(c1ccncc1)n1nc(C(F)(F)F)nc1C2` (stereo not shown) [Structure 244]: “inactive”; for `COc1ccc(C2Nc3ccccc3C(=O)N2Cc2ccco2)cc1COc1ccc([N+](=O)[O-])cc1` (stereo not shown) [Structure 245]: “inactive”.
The same measure, in the same setting: the same measure for `COc1ccc(CN2C(=O)N(c3ccccc3)C(=O)C2c2ccccc2)cc1COc1ccc(NC(C)=O)cc1` (stereo not shown) [Structure 247]: “inactive”.
With `COc1ccc(CN(Cc2ccccc2)C(=O)c2ccno2)cc1COc1ccc(NC(C)=O)cc1` [Structure 248], the Emax was found to be 32%. In addition, the AC50 (read-out: AC50) is 70.8 µM.
In the case of `COc1ccc(CN(Cc2ccccc2)C(=O)c2ccno2)cc1COc1ccc(NC(C)=O)cc1` [Structure 249], the “Maximum Activity compared to TSH” value was found to be 38.00. Further, the AC50 (read-out: AC50) worked out at 50.1 µM.
With `COc1ccc(C2Nc3ccccc3C(=O)N2Cc2ccccc2)cc1COc1ccc(C#N)cc1` (stereo not shown) [Structure 250], the AC50 entry was “inactive”.
Same read-out and setting: the result for `O=C1c2ccccc2NC(c2cc(Br)c3c(c2)OCO3)N1Cc1ccco1` (stereo not shown) [Structure 251] reads “inactive”; that for `COc1cc(C2Nc3ccccc3C(=O)N2Cc2ccccc2)ccc1OCc1ccc(NC(C)=O)cc1` (stereo not shown) [Structure 252], “inactive”; that for `O=C1c2ccccc2NC(c2ccccc2)N1Cc1ccco1` (stereo not shown) [Structure 254], “inactive”.
Same read-out and setting: the same measure for `O=C1c2ccccc2NC(c2ccccc2)N1Cc1ccco1` (stereo not shown) [Structure 255]: “inactive”.
Regarding `COc1ccc(OCc2cc(C3Nc4ccccc4C(=O)N3Cc3ccccc3)ccc2OC)cc1` (stereo not shown) [Structure 256], the “Maximum Activity compared to TSH” value was found to be 24.00. Under “read-out: AC50”, the AC50 was 5.01 µM.
Consider `COc1ccc(C2Nc3ccccc3C(=O)N2CC(C)(C)C)cc1COc1ccc(NC(C)=O)cc1` (stereo not shown) [Structure 257], for which the Emax was 20%. Also, the AC50 (read-out: AC50) is 20 µM.
On to `COc1ccc(C2Nc3ccccc3C(=O)N2C2CCCC2)cc1COc1ccc(NC(C)=O)cc1` (stereo not shown) [Structure 258], for which the “Maximum Activity compared to TSH” value was determined as 21.50. Besides, the AC50 (read-out: AC50) was 28.2 µM.
Take `COc1ccc(C2Nc3ccccc3C(=O)N2Cc2ccccc2)cc1COc1cccc(Cl)c1` (stereo not shown) [Structure 259]: the AC50 entry is “inactive”.
The same measure, in the same setting: the same measure for `COc1ccc(O)c(C2Nc3ccccc3C(=O)N2Cc2ccccc2)c1` (stereo not shown) [Structure 260]: “inactive”; for `COc1ccc(-c2nc3ccc(NC(=O)COC(C)=O)cc3c(=O)n2Cc2ccccc2)cc1COc1ccc(NC(C)=O)cc1` [Structure 261]: “inactive”; for `COc1ccc(C2Nc3ccccc3C(=O)N2Cc2ccccc2)cc1COc1ccc(NC(=O)c2ccccc2)cc1` (stereo not shown) [Structure 263]: “inactive”.
On the same count and under the same terms, the same measure for `COc1ccc(C2Nc3ccccc3C(=O)N2Cc2ccccc2)cc1COc1ccc(NC(=O)c2ccccc2)cc1` (stereo not shown) [Structure 264]: “inactive”.
Regarding `COc1ccc(C2Nc3ccccc3C(=O)N2Cc2ccccc2C(F)(F)F)cc1COc1ccc(NC(C)=O)cc1` (stereo not shown) [Structure 265], the “Maximum Activity compared to TSH” value was found to be 24.00. Further, the AC50 (read-out: AC50) is 6.31 µM.
For the compound `COc1ccc(C2Nc3ccccc3C(=O)N2Cc2ccco2)cc1COc1ccccc1` (stereo not shown) [Structure 266], the AC50 result is “inactive”.
Turning to `COc1ccc(C2N(Cc3ccccc3)C(=O)c3ccccc3N2C)cc1COc1ccc(NC(C)=O)cc1` (stereo not shown) [Structure 267], the “Maximum Activity compared to TSH” value is 24.50. Moreover, the AC50 (read-out: AC50) came out at 7.94 µM.
As for `CC(C)c1ccc(C2C3=C(CC(c4ccco4)CC3=O)Nc3nc(C(F)(F)F)nn32)cc1` (stereo not shown) [Structure 268], the AC50 entry is “inactive”.
For the compound `COc1ccc(C2Nc3ccccc3C(=O)N2Cc2ccccn2)cc1COc1ccc(NC(C)=O)cc1` (stereo not shown) [Structure 269], the “Maximum Activity compared to TSH” value amounted to 28.00. Moreover, where the note is “read-out: AC50”, the AC50 turned out to be 25.1 µM.
In the case of `COc1ccc(C2Nc3ccccc3C(=O)N2Cc2ccccc2)cc1COc1ccc(C(N)=O)cc1` (stereo not shown) [Structure 270], the AC50 result was “inactive”.
The same measure, in the same setting: the same measure for `COc1ccc(CN(Cc2ccccc2)C(=O)c2ccccc2O)cc1` [Structure 271]: “inactive”.
On the same count and under the same terms, the result for `COc1ccc(C2Nc3ccccc3C(=O)N2Cc2ccccc2)cc1COc1ccc(F)cc1` (stereo not shown) [Structure 272] reads “inactive”.
Regarding `COc1ccc(C2Nc3ccccc3C(=O)N2Cc2ccccc2Cl)cc1COc1ccc(NC(C)=O)cc1` (stereo not shown) [Structure 273], the “Maximum Activity compared to TSH” value came to 11.00. Further, the AC50 (read-out: AC50) amounted to 2.51 µM.
For `COc1ccc(C2Nc3cccc(OC)c3C(=O)N2Cc2ccccc2)cc1COc1ccc(NC(C)=O)cc1` (stereo not shown) [Structure 274], in that order: 28.00 and 20 µM.
With `CCC(=O)Nc1ccc(OCc2cc(C3Nc4ccccc4C(=O)N3Cc3ccccc3)ccc2OC)cc1` (stereo not shown) [Structure 275], the “Maximum Activity compared to TSH” value came out at 23.50. The AC50 (read-out: AC50) was found to be 7.94 µM.
For `COc1ccc(C2Nc3ccccc3C(=O)N2CC(C)(C)C)cc1COc1ccc(NC(C)=O)cc1` (stereo not shown) [Structure 276], in that order: 32.00 and 25.1 µM.
